Laboratory results from ChEMBL document CHEMBL1135713, “Antitumor benzothiazoles. 16. Synthesis and pharmaceutical properties of antitumor 2-(4-aminophenyl)benzothiazole amino acid prodrugs” (J Med Chem, 2002).

Experiments:
[1] = The compound was tested for its solubility at a pH of 8.5; assay type: ADME; details: pH 8.5; read-out: S
[2] = The compound was tested for its solubility at a pH of 7.4; assay type: ADME; details: pH 7.4; read-out: S
[3] = The compound was tested for its solubility at a pH of 6.3; assay type: ADME; details: pH 6.3; read-out: S
[4] = The compound was tested for its solubility at a pH of 5.0; assay type: ADME; details: pH 5; read-out: S
[5] = The compound was tested for its solubility at a pH of 10.5; assay type: ADME; details: pH 10.5; read-out: S
[6] = The compound was tested for its solubility at a pH of 9.6; assay type: ADME; details: pH 9.6; read-out: S
[7] = log P value in cyclohexane:buffer at pH 7.4; assay type: physicochemical
[8] = Delta logP; assay type: ADME; details: octanol/water

Compound | solubility [1] [mg/mL] | solubility [2] [mg/mL] | solubility [3] [mg/mL] | solubility [4] [mg/mL] | solubility [5] [mg/mL] | solubility [6] [mg/mL] | logD [7] | delta logP [8]
Cc1cc(-c2nc3cc(F)ccc3s2)ccc1NC(=O)[C@@H](N)CCCCN.Cl.Cl | 0.075 | 0.39 | 7 | > 53.2 | 0.01 | 0.02 |  | 
Cc1cc(-c2nc3ccccc3s2)ccc1N |  |  |  |  |  |  | 2.51 | 1.45
